Reference: ChEMBL document CHEMBL1201862, “PubChem BioAssay data set” (2004)
Active and inactive are the calls of the source.

Legend:
[1] = biological target: T1, Zinc finger protein mex-5 (Caenorhabditis elegans, UniProt Q9XUB2); experiment: MEX-5/TCR-2 RNA interaction inhibitors, dose response, biochemical, C. elegans, fluorescence polarization (AID 1960)
T1 sequence (Q9XUB2 whole entry): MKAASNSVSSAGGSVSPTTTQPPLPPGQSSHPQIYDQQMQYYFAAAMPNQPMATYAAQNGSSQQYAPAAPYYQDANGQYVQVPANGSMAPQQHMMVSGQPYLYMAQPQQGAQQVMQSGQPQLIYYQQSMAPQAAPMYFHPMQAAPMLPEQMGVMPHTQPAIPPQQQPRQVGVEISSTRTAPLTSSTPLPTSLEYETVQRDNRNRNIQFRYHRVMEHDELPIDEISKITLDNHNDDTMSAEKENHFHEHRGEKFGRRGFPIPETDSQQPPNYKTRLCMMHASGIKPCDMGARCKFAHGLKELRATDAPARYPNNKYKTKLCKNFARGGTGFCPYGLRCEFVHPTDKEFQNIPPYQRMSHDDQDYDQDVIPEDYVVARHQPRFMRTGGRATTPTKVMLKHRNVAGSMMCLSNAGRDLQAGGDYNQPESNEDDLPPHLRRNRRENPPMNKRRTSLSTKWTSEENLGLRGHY

[2] = biological target: T2, RNA-binding protein pos-1 (Caenorhabditis elegans, UniProt G5EF15); experiment: inhibitors of POS-1/mex-3 RNA binding, dose response, biochemical, fluorescence polarization (AID 1964);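 note: purified POS-1 fused to maltose binding protein made in E. coli; potency of compounds blocking POS-1 binding to fluorescent RNA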
T2 sequence (G5EF15 whole entry): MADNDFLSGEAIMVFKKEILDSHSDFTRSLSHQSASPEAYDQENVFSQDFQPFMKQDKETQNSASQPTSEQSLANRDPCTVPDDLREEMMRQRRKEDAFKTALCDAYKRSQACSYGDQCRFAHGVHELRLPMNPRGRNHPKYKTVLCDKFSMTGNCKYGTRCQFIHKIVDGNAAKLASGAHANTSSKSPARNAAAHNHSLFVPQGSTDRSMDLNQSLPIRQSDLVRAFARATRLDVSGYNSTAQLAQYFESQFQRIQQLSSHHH

Cytochrome P450 3A4 = Cytochrome P450 3A4 (Homo sapiens, UniProt P08684);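 note: CYP3A4 tested as one member of a cytochrome P450 panel screen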
Cytochrome P450 2C19 = Cytochrome P450 2C19 (Homo sapiens, UniProt P33261); experiment: Cytochrome panel assay with activity outcomes. Panel member name: p450-cyp2c19 Compounds with AC50 equal or less than 10 uM are considered active; format: functional; settings: read-out: AC50
Cytochrome P450 1A2 = biological target: T3, Cytochrome P450 1A2 (Homo sapiens, UniProt P05177);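 note: PubChem cytochrome P450 panel assay, CYP1A2 panel member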
T3 sequence (P05177 whole entry): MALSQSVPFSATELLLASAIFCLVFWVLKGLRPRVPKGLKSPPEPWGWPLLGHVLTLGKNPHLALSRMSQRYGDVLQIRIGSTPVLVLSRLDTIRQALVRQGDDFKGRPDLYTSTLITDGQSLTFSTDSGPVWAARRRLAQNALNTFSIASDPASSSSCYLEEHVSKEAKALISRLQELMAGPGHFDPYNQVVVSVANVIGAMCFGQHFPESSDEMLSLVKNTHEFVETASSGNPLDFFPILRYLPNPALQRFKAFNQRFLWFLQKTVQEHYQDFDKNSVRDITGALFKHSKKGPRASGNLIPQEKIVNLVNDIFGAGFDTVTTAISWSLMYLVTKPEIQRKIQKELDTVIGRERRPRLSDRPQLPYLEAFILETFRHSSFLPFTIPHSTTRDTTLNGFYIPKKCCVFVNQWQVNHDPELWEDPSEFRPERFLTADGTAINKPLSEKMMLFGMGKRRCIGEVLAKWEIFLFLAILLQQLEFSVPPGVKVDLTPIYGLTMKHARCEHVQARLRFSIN

H4 = experiment: Luminescence Cell-Based Dose Response HTS to Identify Activators of 5'UTR Stem-Loop Driven Prion Protein mRNA Translation in H4 Neuroglioblastoma Cells. [Related pubchem assays: 1829 (Project Summary), 1814 (Primary HTS)]; format: functional; settings: Homo sapiens
[3] = Luminescence Cell-Based Dose Response HTS to Identify Activators of Luciferase Translation or Activity in H4 […] Cells. [Related pubchem assays: 1829 (Project Summary), 1814 (Primary HTS)]; format: functional
[4] = Luminescence Cell-Based Dose Confirmation HTS to Identify Activators of 5'UTR Stem-Loop Driven Alpha-Synuclein mRNA Translation in H4 Neuroglioblastoma Cells. [Related pubchem assays: 1829 (Project Summary), 1814 (Primary HTS)]; format: functional
[5] = biological target: T4, Polyadenylate-binding protein 1 (Homo sapiens, UniProt P11940); experiment: PABP1 MLLE–PAM2 binding inhibitor potency, dose response, biochemical, fluorescence polarization, FITC-PAM2 peptide (AID 602259); format: functional; settings: read-out: IC50_Mean
[6] = biological target: T4, Polyadenylate-binding protein 1; experiment: PABP1 MLLE–PAM2 interaction inhibitors, dose response, miRNA deadenylation inhibitor project, biochemical, fluorescence polarization, Cy5-PAM2 peptide, secondary (AID 602260); format: functional; settings: read-out: IC50_Mean
[7] = inhibitors of firefly luciferase expression or activity, dose response, H4 neuroglioma cells, luminescence (AID 1990); format: functional, cell-based
[8] = inhibitors of SNCA 5'UTR-driven reporter translation, confirmation, H4 neuroglioma cells, luminescence (AID 1988); format: functional, cell-based
[9] = growth suppression of beta-catenin-knockout colon cells, dose response, cell-based, HCT116, human colon tumor (AID 1045); format: functional;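 note: HCT116 colon tumor cells with beta catenin knocked out; cells exposed to compound for 60 hours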
[10] = Luminescence Cell-Based Dose Response HTS to Identify Inhibitors of 5'UTR Stem-Loop Driven Prion Protein mRNA Translation in H4 Neuroglioblastoma Cells. [Related pubchem assays: 1827 (Project Summary), 1813 (Primary HTS)]; format: functional
[11] = growth suppression of PTEN-null colon cells, dose response, cell-based, HCT116 PTEN knockout (AID 1047); format: functional;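 note: HCT116 colon tumor cells with PTEN knocked out; cells exposed to compound for 60 hours before readout; potency for loss of cell viability measured by luminescence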
Cytochrome P450 2D6 = Cytochrome P450 2D6 (Homo sapiens, UniProt P10635);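 note: CYP2D6 member of a cytochrome P450 panel assay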
INS1 = experiment: beta cell apoptosis inhibitors, cytokine rescue, dose response, luminescence, retest (AID 449756); format: functional, cell-based; settings: Rattus norvegicus;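 note: cell death triggered by IL-1 beta plus TNF-alpha plus IFN-gamma mixture; protective hits raise ATP signal compared with cytokine alone wells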

T4 sequence (P11940 whole entry): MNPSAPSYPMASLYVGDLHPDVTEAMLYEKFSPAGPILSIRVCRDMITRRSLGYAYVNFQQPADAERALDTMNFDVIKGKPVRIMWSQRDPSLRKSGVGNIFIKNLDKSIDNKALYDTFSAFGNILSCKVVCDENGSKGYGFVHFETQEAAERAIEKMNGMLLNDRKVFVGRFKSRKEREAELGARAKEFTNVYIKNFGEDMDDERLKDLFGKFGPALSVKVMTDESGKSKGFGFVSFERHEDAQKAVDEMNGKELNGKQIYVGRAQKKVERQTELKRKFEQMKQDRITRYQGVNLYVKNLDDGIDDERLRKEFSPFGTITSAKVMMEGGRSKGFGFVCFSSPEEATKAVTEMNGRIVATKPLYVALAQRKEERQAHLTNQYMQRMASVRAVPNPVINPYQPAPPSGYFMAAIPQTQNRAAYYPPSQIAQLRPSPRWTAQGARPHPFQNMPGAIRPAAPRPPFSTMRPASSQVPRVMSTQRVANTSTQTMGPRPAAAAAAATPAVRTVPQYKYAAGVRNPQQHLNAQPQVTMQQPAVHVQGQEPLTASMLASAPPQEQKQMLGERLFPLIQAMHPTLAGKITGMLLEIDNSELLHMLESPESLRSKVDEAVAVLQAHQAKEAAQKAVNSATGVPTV
Sequence of Cytochrome P450 2C19 (P33261 whole entry): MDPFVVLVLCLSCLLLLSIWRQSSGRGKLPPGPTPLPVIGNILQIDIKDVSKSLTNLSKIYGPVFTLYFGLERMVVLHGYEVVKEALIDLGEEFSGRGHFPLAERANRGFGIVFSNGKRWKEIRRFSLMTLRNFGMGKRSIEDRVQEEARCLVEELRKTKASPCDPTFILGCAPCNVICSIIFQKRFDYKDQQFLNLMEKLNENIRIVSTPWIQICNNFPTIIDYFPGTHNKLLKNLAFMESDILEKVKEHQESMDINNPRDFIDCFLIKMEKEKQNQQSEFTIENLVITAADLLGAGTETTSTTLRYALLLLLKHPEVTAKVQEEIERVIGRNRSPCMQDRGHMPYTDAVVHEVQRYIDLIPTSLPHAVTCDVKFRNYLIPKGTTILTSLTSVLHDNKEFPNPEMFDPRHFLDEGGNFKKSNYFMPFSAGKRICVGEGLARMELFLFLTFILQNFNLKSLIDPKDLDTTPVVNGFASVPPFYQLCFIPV
Sequence of Cytochrome P450 3A4 (P08684 whole entry): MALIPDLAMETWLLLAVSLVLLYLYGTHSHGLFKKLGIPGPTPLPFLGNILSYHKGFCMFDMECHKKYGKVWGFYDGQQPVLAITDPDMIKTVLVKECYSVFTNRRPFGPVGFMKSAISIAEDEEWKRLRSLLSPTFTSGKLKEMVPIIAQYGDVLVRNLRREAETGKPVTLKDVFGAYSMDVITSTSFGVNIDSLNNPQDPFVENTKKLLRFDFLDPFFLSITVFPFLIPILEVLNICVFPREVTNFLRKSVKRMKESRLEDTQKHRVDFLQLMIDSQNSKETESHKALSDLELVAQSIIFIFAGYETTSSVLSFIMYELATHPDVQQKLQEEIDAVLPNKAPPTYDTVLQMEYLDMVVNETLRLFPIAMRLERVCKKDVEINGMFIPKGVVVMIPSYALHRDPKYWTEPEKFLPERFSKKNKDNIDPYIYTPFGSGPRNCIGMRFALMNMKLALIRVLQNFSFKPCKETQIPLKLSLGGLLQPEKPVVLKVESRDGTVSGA
Sequence of Cytochrome P450 2D6 (P10635 whole entry): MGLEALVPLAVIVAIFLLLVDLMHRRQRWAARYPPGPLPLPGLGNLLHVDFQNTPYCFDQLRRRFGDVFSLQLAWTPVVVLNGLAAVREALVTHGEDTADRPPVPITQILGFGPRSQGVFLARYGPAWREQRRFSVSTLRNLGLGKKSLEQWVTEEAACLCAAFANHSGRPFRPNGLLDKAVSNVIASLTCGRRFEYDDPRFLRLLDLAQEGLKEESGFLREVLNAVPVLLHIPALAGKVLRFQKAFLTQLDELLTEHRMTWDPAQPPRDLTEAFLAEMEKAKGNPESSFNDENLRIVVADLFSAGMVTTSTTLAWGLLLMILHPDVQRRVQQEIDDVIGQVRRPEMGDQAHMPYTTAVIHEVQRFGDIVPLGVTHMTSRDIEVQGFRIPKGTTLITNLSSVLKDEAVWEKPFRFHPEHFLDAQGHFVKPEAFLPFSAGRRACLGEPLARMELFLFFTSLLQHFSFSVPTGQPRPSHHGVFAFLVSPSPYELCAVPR

## C/C(NCc1ccc2c(c1)OCO2)=C1/C(=O)NC(=O)N(c2ccccc2)C1=O
[1]
  EC50: > 300 µM (not active)
[2]
  EC50: > 300 µM (not active)

## COc1ccc(/C=C2/N=C(c3cccs3)OC2=O)cc1OC(C)C
[1]
  EC50: 41.1 µM (active)
[2]
  EC50: > 300 µM (not active)

## O=C(OCc1ccc(Cl)cc1)c1ccccc1C(=O)c1ccccc1
Cytochrome P450 3A4
  AC50: 17.8 µM (inconclusive)
Cytochrome P450 2C19
  AC50: 0.0891 µM (inconclusive)
Cytochrome P450 1A2
  AC50: 3.55 µM (inconclusive)

## CCNc1ncc2nc(-c3cc(F)cc(F)c3)c(=O)n(CCc3ccccc3)c2n1
Cytochrome P450 3A4
  AC50: 12.6 µM (inconclusive)
Cytochrome P450 1A2
  AC50: 25.1 µM (inconclusive)

## COc1ccc(C(=O)N=C(N)Nc2nc3ccccc3o2)cc1
H4
  EC50: 29.5 µM (active)
[3]
  EC50: 24.2 µM (active)
[4]
  EC50: > 120 µM (not active)

## Cc1cccc(-c2nc(=S)c3c(o2)CCCC3)c1
[5]
  IC50: > 66 µM (inactive)
[6]
  IC50: > 66 µM (inactive)

## Cc1cccn2c(=O)c3cc(C(=O)NCCN4CCOCC4)c(=N)n(Cc4cccnc4)c3nc12
[7]
  EC50: 12.6 µM (active)
[1]
  EC50: 87.2 µM (active)
[2]
  EC50: > 300 µM (not active)
[8]
  EC50: 9.91 µM (active)

## CC(C)CCn1c(N2CCN(c3cccc(Cl)c3)CC2)nc2c1c(=O)[nH]c(=O)n2C
[7]
  EC50: 18.9 µM (active)
[9]
  EC50: 33.5 µM (active)
[10]
  EC50: > 60 µM (not active)
[8]
  EC50: > 120 µM (not active)
[11]
  EC50: 26.1 µM (active)

## Cc1ccc2sc(C)[n+](CCC(C)S(=O)(=O)[O-])c2c1 (stereo not drawn)
[5]
  IC50: > 66 µM (inactive)
[6]
  IC50: > 66 µM (inactive)

## COc1ccccc1-c1nccc(NC2CCNCC2)n1
Cytochrome P450 2C19
  AC50: 1.58 µM (inconclusive)
Cytochrome P450 1A2
  AC50: 15.8 µM (inconclusive)

## c1ccc(CN2CCN(c3nc(-c4ccccn4)nc4ccccc34)CC2)cc1
[9]
  EC50: 8.05 µM (active)
[11]
  EC50: 10.6 µM (active)

## Brc1ccc2oc3c(N4CCOCC4)ncnc3c2c1
H4
  EC50: 14.7 µM (active)
[3]
  EC50: 4.18 µM (active)
[4]
  EC50: 18.5 µM (active)

## COc1ccc(NC(S)=Nc2ccc3nccnc3c2)cc1
H4
  EC50: 8.17 µM (active)
[3]
  EC50: 7.7 µM (active)
[4]
  EC50: > 120 µM (not active)

## CN1CCN(C(=O)c2ccc(-n3cccc3)cc2)CC1
Cytochrome P450 2C19
  AC50: 25.1 µM (inconclusive)
Cytochrome P450 1A2
  AC50: 25.1 µM (inconclusive)
Cytochrome P450 2D6
  AC50: 15.8 µM (inconclusive)

## CCOC(=O)c1sc(NC(=O)c2c(C)nn(Cc3ccccc3)c2C)cc1C
[9]
  EC50: 27.7 µM (active)
[11]
  EC50: 30.4 µM (active)
INS1
  AC50: 37.2 µM (active)

## CCSc1sccc1C1C(C#N)=C(N)N(c2cccnc2)C2=C1C(=O)CCC2 (stereo not drawn)
[5]
  IC50: > 66 µM (inactive)
[6]
  IC50: > 66 µM (inactive)

## COc1cccc(NC(=O)CSc2nc3ccccc3cc2Cc2ccccc2)c1
Cytochrome P450 1A2
  AC50: 4.47 µM (inconclusive)

## Cn1c(=O)c(-c2ccc(Cl)cc2)nc2cnc(Nc3ccccc3)nc21
Cytochrome P450 1A2
  AC50: 31.6 µM (inconclusive)

## COc1ccc(/C=C/C(=O)Nc2ccccc2C(=O)N2CCCC2)cc1
Cytochrome P450 3A4
  AC50: 1 µM (inconclusive)
Cytochrome P450 1A2
  AC50: 28.2 µM (inconclusive)

## Cn1c(=O)c(C(=O)CSc2nnc(Nc3ccccc3)s2)c(N)n(Cc2ccccc2)c1=O
[9]
  EC50: 9.15 µM (active)
[11]
  EC50: 8.05 µM (active)

## Cc1cnn(-c2cc(Oc3ccccc3)ncn2)c1
H4
  EC50: 11 µM (active)
[3]
  EC50: 97.4 µM (active)
[4]
  EC50: 1.11 µM (active)

## CCOc1cc(C(=S)N2CCOCC2)ccc1OC
[5]
  IC50: > 66 µM (inactive)
[6]
  IC50: > 66 µM (inactive)

## Cc1n[nH]c(SC(C(=O)c2ccccc2)c2ccccc2)n1 (stereo not drawn)
Cytochrome P450 1A2
  AC50: 39.8 µM (inconclusive)
Cytochrome P450 2D6
  AC50: 20 µM (inconclusive)

## CCC(C(=O)NC1CCCC1)N(C(=O)Cn1nnc(-c2ccc(C)o2)n1)c1cnc2ccccc2c1 (stereo not drawn)
[9]
  EC50: 17.5 µM (active)
[11]
  EC50: 17.2 µM (active)

## Cc1ccn2c(=O)nc(SCC(=O)Nc3cc(C)on3)nc2c1
[1]
  EC50: > 300 µM (not active)
[2]
  EC50: > 300 µM (not active)

## CC1Cc2ccccc2N1C(=O)CSc1n[nH]c2c3cc(F)ccc3nc-2n1 (stereo not drawn)
[9]
  EC50: 25 µM (active)
[11]
  EC50: 24.5 µM (active)

## COC(=O)CCC(=O)OC1(C)C(=O)C2=COC(c3ccc(OC)cc3)=CC2=C(Br)C1=O (stereo not drawn)
[1]
  EC50: 33.1 µM (active)
[2]
  EC50: 91.5 µM (active)

## COc1ccc(OCC(=O)NC(=S)Nc2ccc(S(=O)(=O)Nc3cc(OC)nc(OC)n3)cc2)cc1
[5]
  IC50: > 66 µM (inactive)
[6]
  IC50: > 66 µM (inactive)

## CS(=O)(=O)NNC(=O)Cn1nnc(-c2ccc(OCc3ccccc3Cl)cc2)n1
H4
  EC50: > 120 µM (not active)
[3]
  EC50: 25 µM (active)
[4]
  EC50: 18.2 µM (active)

## NS(=O)(=O)c1ccc(NC(=O)COC(=O)c2cn(-c3ccccc3)nc2-c2ccc(F)cc2)cc1
[1]
  EC50: > 300 µM (not active)
[2]
  EC50: > 300 µM (not active)

## COc1ccc(C2C(C#N)=C(N)OC3=C2C(=O)CCC3)cc1Cn1nc(C)c([N+](=O)[O-])c1C (stereo not drawn)
[1]
  EC50: > 300 µM (not active)
[2]
  EC50: > 300 µM (not active)

## Oc1ccc(C(=S)N2CCCCCC2)cc1
[5]
  IC50: > 66 µM (inactive)
[6]
  IC50: > 66 µM (inactive)

## Cc1ccc(NC(=O)c2cc(-c3ccccc3)nn2-c2ccccc2)c(Br)c1
[9]
  EC50: 23.5 µM (active)
[11]
  EC50: 34.6 µM (active)

## COC(=O)c1ccc(-n2cnc3ccccc32)nc1
H4
  EC50: > 120 µM (not active)
[3]
  EC50: 16.1 µM (active)
[4]
  EC50: 14.1 µM (active)

## CC(=O)c1c(N2CCOCC2)nc(=S)n(-c2ccccc2)c1C
[5]
  IC50: > 66 µM (inactive)
[6]
  IC50: > 66 µM (inactive)

## O=C(CSc1ccccc1C(=O)O)NC1CCCCCC1
[5]
  IC50: > 66 µM (inactive)
[6]
  IC50: > 66 µM (inactive)

## CC(=O)NC(Cc1ccc(F)cc1)C(=O)O (stereo not drawn)
Cytochrome P450 1A2
  AC50: 0.01 µM (inconclusive)

## COc1cc2c(cc1OC)CN(C(=O)CSc1ccccc1C)CC2
[5]
  IC50: > 66 µM (inactive)
[6]
  IC50: > 66 µM (inactive)

## Cc1ccccc1Nc1nc(N)nc(O)c1N=O
[5]
  IC50: 38.2 µM (inactive)
[6]
  IC50: > 66 µM (inactive)

## C(=N\Nc1nc(-c2ccccc2)cs1)/c1ccco1
H4
  EC50: 33.2 µM (active)
[3]
  EC50: 7.64 µM (active)
[4]
  EC50: 5.18 µM (active)

## CCCCc1noc2c1/C(=N\O)CC(c1ccccc1)C2 (stereo not drawn)
H4
  EC50: 27.9 µM (active)
[3]
  EC50: 6.02 µM (active)
[4]
  EC50: > 120 µM (not active)

## COC(=O)c1ccc(CO/N=C2\CCCc3nonc32)cc1
H4
  EC50: 12.9 µM (active)
[3]
  EC50: 17.8 µM (active)
[4]
  EC50: 92.4 µM (active)
